According to patent US20080311126A1, “Antisense Oligonucleotides Directed to Ribonucleotide Reducatase R2 and Uses Thereof in Combination Therapies for the Treatment of Cancer” (Genesense Technologies, Inc, priority 2004, published 2008):
Oligonucleotides are written 5' to 3', each unit as a sugar letter and its base; * is a phosphorothioate linkage, no mark a phosphodiester; rarer units and linkages stand in square brackets, end groups in braces. Plain capitals give the bases only. d = 2'-deoxy (DNA)

What was measured:
Type in all cases: cell-based, human
[1] = system: Hela S3 cells; assay: Relative colony forming efficiency, lipofectin +/- oligonucleotide 4 hours; conditions: Hela S3 cervix carcinoma cells; averages of 2-8 determinations
Description: Colony forming efficiency was determined using standard protocols. Briefly, the cells were cultured for 24 hours at 37° C. in growth medium with 10% fetal bovine serum. The cells were washed in 5 ml phosphate buffered saline, pH 7.2, once prior to lipofectin +/−oligonucleotide treatment.
The test oligonucleotides were added to cell cultures in the presence of 2.5 μg of DOTMA/DOPE (Lipofectin; Life Technologies, Inc.) for four hours. The oligonucleotide was tested at 0.2 μM unless otherwise indicated. Controls were the cultures treated with lipofectin but without the oligonucleotide. After 4 hours the medium containing the oligonucleotide was removed and washed with 5 ml of growth medium. The cells were then cultured in growth medium containing 10% fetal bovine serum for seven to ten days. Surviving cells were visualized by methylene blue staining, and colonies were scored. In some experiments cell aliquots were removed from the culture and viability was determined using the trypan blue exclusion test. Results were analyzed as percent of surviving cells compared to control cells.
AS-II-336-20 was tested for the ability to inhibit the proliferation of human tumour cells (Hela). Hela S3 cells (American Type Culture Collection, Rockville, Md., ATCC), and a Hela cell line (Hela 1 mM) previously selected for resistance to the antitumour agent, hydroxyurea, were tested (see results in Table 11). Two experiments were undertaken with Hela S3 cells. […] The same experiment was repeated with the Hela 1 mM cell line and with varying concentrations of the antisense construct AS-II-336-20 (see results in Table 11) with similar results, […] was an effective concentration for inhibiting colony formation.
To test the antisense effects of many of these sequences as phosphorthioate deoxyribonucleotides, they were examined in relative colony forming experiments conducted as described in Example 16 with a series of human tumour cell lines. The results (shown as % inhibition of colony forming ability) obtained with cancer cells derived from the bladder, breast, lung, colon, pancreas, prostate, liver and cervix, are shown in Table 13. The specific cell lines employed are as follows:
T24=bladder cell carcinoma HCT116=colon cell carcinoma A549=lung cell carcinoma MDA-MB-231=breast cell adenocarcinoma […]=pancreatic cell carcinoma PC-3=prostrate cell adenocarcinoma HepG2=hepatocellular carcinoma HeLaS3=cells isolated from a carcinoma of the cervix T-47D=breast ductal carcinoma H596=lung adenosquamous carcinoma cells Colo320=colon cell adenocarcinoma

[2] = system: A549 lung cell carcinoma; assay: Relative colony forming efficiency (Example 17, Table 13); conditions: averages of 2-8 determinations
Summary of the method: (§1)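 0.2 μM oligo (default) + 2.5 μg Lipofectin, 4 h exposure; methylene blue stain, colonies counted; vs lipofectin-alone control, reported as % inhibition.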

[3] = system: HCT116 colon cell carcinoma; assay: as above; conditions: averages of 2-8 determinations
Summary of the method: as §1

[4] = system: HepG2 hepatocellular carcinoma; assay: as above; conditions: averages of 2-8 determinations
Summary of the method: as §1

[5] = system: MDA PaCa-2 pancreatic cell carcinoma; assay: as above; conditions: MIA PaCa-2 pancreatic cell carcinoma, averages of 2-8 determinations
Summary of the method: as §1

[6] = system: PC-3 prostrate cell adenocarcinoma; assay: as above; conditions: averages of 2-8 determinations
Summary of the method: as §1

[7] = system: T-47D breast ductal carcinoma; assay: as above; conditions: averages of 2-8 determinations
Summary of the method: as §1

[8] = system: T24 bladder cell carcinoma; assay: as above; conditions: averages of 2-8 determinations
Summary of the method: as §1

[9] = system: H596 lung adenosquamous carcinoma cells; assay: as above; conditions: averages of 2-8 determinations
Summary of the method: as §1

[10] = system: MDA-MB-231 breast cell adenocarcinoma; assay: as above; conditions: averages of 2-8 determinations
Summary of the method: as §1

Sequence: GTCTCTCCTCCGATGGTTTG [AS-II-1040-20]
- Reduced relative colony forming efficiency, Hela S3 (% inhibition of colony forming ability) [1]: 71.87%
- Reduced relative colony forming efficiency, A549 (% inhibition of colony forming ability) [2]: 85.82%
- Reduced relative colony forming efficiency, HCT116 (% inhibition of colony forming ability) [3]: 70.08%
- Reduced relative colony forming efficiency, HepG2 (% inhibition of colony forming ability) [4]: 77.78%
- Reduced relative colony forming efficiency, MIA PaCa-2 (% inhibition of colony forming ability) [5]: 43.52%
- Reduced relative colony forming efficiency, PC-3 (% inhibition of colony forming ability) [6]: 40.08%
- Reduced relative colony forming efficiency, T-47D (% inhibition of colony forming ability) [7]: 64.76%
- Reduced relative colony forming efficiency, T24 (% inhibition of colony forming ability) [8]: 59.49%

Sequence: ATCGCCGCCGTG (antisense dA*dT*dC*dG*dC*dC*dG*dC*dC*dG*dT*dG) [AS-II-1775-12]
- Reduced relative colony forming efficiency, Hela S3 (% inhibition of colony forming ability) [1]: 68.61%
- Reduced relative colony forming efficiency, A549 (% inhibition of colony forming ability) [2]: 63.55%
- Reduced relative colony forming efficiency, 11596 (% inhibition of colony forming ability) [9]: 18.6%
- Reduced relative colony forming efficiency, HepG2 (% inhibition of colony forming ability) [4]: 43.97%
- Reduced relative colony forming efficiency, MIA PaCa-2 (% inhibition of colony forming ability) [5]: 27.78%
- Reduced relative colony forming efficiency, MDA-MB-231 (% inhibition of colony forming ability) [10]: 48.6%
- Reduced relative colony forming efficiency, PC-3 (% inhibition of colony forming ability) [6]: 78.17%
- Reduced relative colony forming efficiency, T24 (% inhibition of colony forming ability) [8]: 85.54%

Sequence: TCCTCGGCGGTCCAAA (antisense dT*dC*dC*dT*dC*dG*dG*dC*dG*dG*dT*dC*dC*dA*dA*dA) [AS-II-496-16]
- Reduced relative colony forming efficiency, Hela S3 (% inhibition of colony forming ability) [1]: 52.21%
- Reduced relative colony forming efficiency, A549 (% inhibition of colony forming ability) [2]: 74.45%
- Reduced relative colony forming efficiency, HCT116 (% inhibition of colony forming ability) [3]: 70.85%
- Reduced relative colony forming efficiency, HepG2 (% inhibition of colony forming ability) [4]: 54.8%
- Reduced relative colony forming efficiency, MDA-MB-231 (% inhibition of colony forming ability) [10]: 45.8%
- Reduced relative colony forming efficiency, PC-3 (% inhibition of colony forming ability) [6]: 88.84%
- Reduced relative colony forming efficiency, T-47D (% inhibition of colony forming ability) [7]: 10.79%
- Reduced relative colony forming efficiency, T24 (% inhibition of colony forming ability) [8]: 78.48%

Sequence: CGCGCTCCCGGCCC (antisense dC*dG*dC*dG*dC*dT*dC*dC*dC*dG*dG*dC*dC*dC) [AS-II-79-14]
- Reduced relative colony forming efficiency, Hela S3 (% inhibition of colony forming ability) [1]: 28.64%
- Reduced relative colony forming efficiency, A549 (% inhibition of colony forming ability) [2]: 79.17%
- Reduced relative colony forming efficiency, HCT116 (% inhibition of colony forming ability) [3]: 45.56%
- Reduced relative colony forming efficiency, HepG2 (% inhibition of colony forming ability) [4]: 70.81%
- Reduced relative colony forming efficiency, MIA PaCa-2 (% inhibition of colony forming ability) [5]: 38.89%
- Reduced relative colony forming efficiency, MDA-MB-231 (% inhibition of colony forming ability) [10]: 48.6%
- Reduced relative colony forming efficiency, PC-3 (% inhibition of colony forming ability) [6]: 85.32%
- Reduced relative colony forming efficiency, T-47D (% inhibition of colony forming ability) [7]: 70.81%
- Reduced relative colony forming efficiency, T24 (% inhibition of colony forming ability) [8]: 38.4%

Sequence: AAAAATCAGCCAAGTAAGGG (antisense dA*dA*dA*dA*dA*dT*dC*dA*dG*dC*dC*dA*dA*dG*dT*dA*dA*dG*dG*dG) [AS-II-1381-20]
- Reduced relative colony forming efficiency, Hela S3 (% inhibition of colony forming ability) [1]: 80.53%
- Reduced relative colony forming efficiency, A549 (% inhibition of colony forming ability) [2]: 86.02%
- Reduced relative colony forming efficiency, HCT116 (% inhibition of colony forming ability) [3]: 89.48%
- Reduced relative colony forming efficiency, HepG2 (% inhibition of colony forming ability) [4]: 62.34%
- Reduced relative colony forming efficiency, MIA PaCa-2 (% inhibition of colony forming ability) [5]: 73.77%
- Reduced relative colony forming efficiency, MDA-MB-231 (% inhibition of colony forming ability) [10]: 44.41%
- Reduced relative colony forming efficiency, PC-3 (% inhibition of colony forming ability) [6]: 75%
- Reduced relative colony forming efficiency, T-47D (% inhibition of colony forming ability) [7]: 93.62%
- Reduced relative colony forming efficiency, T24 (% inhibition of colony forming ability) [8]: 71.37%

Sequence: CGCGCGCTCCCGGCCCTTCC (listed as DNA, chemistry not fully specified) [AS-II-75-20]
- Reduced relative colony forming efficiency, Hela S3 (% inhibition of colony forming ability) [1]: 93.01%
- Reduced relative colony forming efficiency, A549 (% inhibition of colony forming ability) [2]: 60.08%
- Reduced relative colony forming efficiency, HCT116 (% inhibition of colony forming ability) [3]: 44.4%
- Reduced relative colony forming efficiency, HepG2 (% inhibition of colony forming ability) [4]: 97.89%
- Reduced relative colony forming efficiency, HepG2 (% inhibition of colony forming ability) ([4]; listed as AS-II-75-20 *): 35.4%
- Reduced relative colony forming efficiency, MIA PaCa-2 (% inhibition of colony forming ability) [5]: 52.07%
- Reduced relative colony forming efficiency, MIA PaCa-2 (% inhibition of colony forming ability) ([5]; listed as AS-II-75-20 *): 97.38%
- Reduced relative colony forming efficiency, MDA-MB-231 (% inhibition of colony forming ability) [10]: 95.14%
- Reduced relative colony forming efficiency, MDA-MB-231 (% inhibition of colony forming ability) ([10]; listed as AS-II-75-20 *): 49.3%
- Reduced relative colony forming efficiency, PC-3 (% inhibition of colony forming ability) [6]: 83.46%
- Reduced relative colony forming efficiency, PC-3 (% inhibition of colony forming ability) ([6]; listed as AS-II-75-20 *): 68.25%
- Reduced relative colony forming efficiency, T-47D (% inhibition of colony forming ability) [7]: 32.95%
- Reduced relative colony forming efficiency, T24 (% inhibition of colony forming ability) [8]: 95.83%
- Reduced relative colony forming efficiency, T24 (% inhibition of colony forming ability) ([8]; listed as AS-II-75-20 *): 73.42%

Sequence: GCACGGGCGACC (antisense dG*dC*dA*dC*dG*dG*dG*dC*dG*dA*dC*dC) [AS-II-127-12]
- Reduced relative colony forming efficiency, Hela S3 (% inhibition of colony forming ability) [1]: 86.45%
- Reduced relative colony forming efficiency, A549 (% inhibition of colony forming ability) [2]: 69.33%
- Reduced relative colony forming efficiency, HCT116 (% inhibition of colony forming ability) [3]: 54.34%
- Reduced relative colony forming efficiency, HepG2 (% inhibition of colony forming ability) [4]: 71.75%
- Reduced relative colony forming efficiency, MIA PaCa-2 (% inhibition of colony forming ability) [5]: 53.34%
- Reduced relative colony forming efficiency, MDA-MB-231 (% inhibition of colony forming ability) [10]: 38.46%
- Reduced relative colony forming efficiency, PC-3 (% inhibition of colony forming ability) [6]: 79.56%
- Reduced relative colony forming efficiency, T-47D (% inhibition of colony forming ability) [7]: 37.54%
- Reduced relative colony forming efficiency, T24 (% inhibition of colony forming ability) [8]: 50.63%

Sequence: GCTCCCACATATGAAAACTC (antisense dG*dC*dT*dC*dC*dC*dA*dC*dA*dT*dA*dT*dG*dA*dA*dA*dA*dC*dT*dC) [AS-II-2229A-20]
- Reduced relative colony forming efficiency, Hela S3 (% inhibition of colony forming ability) [1]: 63.15%
- Reduced relative colony forming efficiency, A549 (% inhibition of colony forming ability) [2]: 69.72%
- Reduced relative colony forming efficiency, HCT116 (% inhibition of colony forming ability) [3]: 93.01%
- Reduced relative colony forming efficiency, HepG2 (% inhibition of colony forming ability) [4]: 73.26%
- Reduced relative colony forming efficiency, MIA PaCa-2 (% inhibition of colony forming ability) [5]: 33.61%
- Reduced relative colony forming efficiency, PC-3 (% inhibition of colony forming ability) [6]: 89.58%
- Reduced relative colony forming efficiency, T-47D (% inhibition of colony forming ability) [7]: 58.82%
- Reduced relative colony forming efficiency, T24 (% inhibition of colony forming ability) [8]: 50.34%

Sequence: GACACAAGGCATCGTTTCAA (antisense dG*dA*dC*dA*dC*dA*dA*dG*dG*dC*dA*dT*dC*dG*dT*dT*dT*dC*dA*dA) [AS-II-784-20]
- Reduced relative colony forming efficiency, Hela S3 (% inhibition of colony forming ability) [1]: 81.48%
- Reduced relative colony forming efficiency, A549 (% inhibition of colony forming ability) [2]: 83.8%
- Reduced relative colony forming efficiency, HCT116 (% inhibition of colony forming ability) [3]: 78.09%
- Reduced relative colony forming efficiency, HepG2 (% inhibition of colony forming ability) [4]: 80.89%
- Reduced relative colony forming efficiency, MIA PaCa-2 (% inhibition of colony forming ability) [5]: 62.04%
- Reduced relative colony forming efficiency, MDA-MB-231 (% inhibition of colony forming ability) [10]: 33.92%
- Reduced relative colony forming efficiency, PC-3 (% inhibition of colony forming ability) [6]: 88.99%
- Reduced relative colony forming efficiency, T-47D (% inhibition of colony forming ability) [7]: 85.39%
- Reduced relative colony forming efficiency, T24 (% inhibition of colony forming ability) [8]: 87.23%

Sequence: AAAACCTTGCTAAAACCCAG (antisense dA*dA*dA*dA*dC*dC*dT*dT*dG*dC*dT*dA*dA*dA*dA*dC*dC*dC*dA*dG) [AS-II-1197-20]
- Reduced relative colony forming efficiency, Hela S3 (% inhibition of colony forming ability) [1]: 82.68%
- Reduced relative colony forming efficiency, A549 (% inhibition of colony forming ability) [2]: 89.15%
- Reduced relative colony forming efficiency, HCT116 (% inhibition of colony forming ability) [3]: 84.85%
- Reduced relative colony forming efficiency, HepG2 (% inhibition of colony forming ability) [4]: 76.32%
- Reduced relative colony forming efficiency, MIA PaCa-2 (% inhibition of colony forming ability) [5]: 70.68%
- Reduced relative colony forming efficiency, MDA-MB-231 (% inhibition of colony forming ability) [10]: 50.35%
- Reduced relative colony forming efficiency, PC-3 (% inhibition of colony forming ability) [6]: 74.4%
- Reduced relative colony forming efficiency, T-47D (% inhibition of colony forming ability) [7]: 81.95%
- Reduced relative colony forming efficiency, T24 (% inhibition of colony forming ability) [8]: 90.3%
